Data: patent US8871680B2, “Herbicidal compositions comprising 4-amino-3-chloro-5-fluoro-6-(4-chloro-2-fluoro-3-methoxyphenyl) pyridine-2-carboxylic acid or a derivative thereof and a di-methoxy-pyrimidine and derivatives thereof” (Dow AgroSciences LLC, priority 2012, dated 2014)

Columns and labels:
[1] = test system: DIGSA; assay: Postemergence foliar-applied weed control, direct seeded rice (greenhouse); assay type: in vivo, Digitaria sanguinalis (L.) Scop.
Text: (§1) Seeds or nutlets of the desired test plant species were planted in a soil matrix prepared by mixing a loam or sandy loam soil (e.g., 28.6 percent silt, 18.8 percent clay, and 52.6 percent sand, with a pH of about 5.8 and an organic matter content of about 1.8 percent) and calcareous grit in an 80 to 20 ratio. The soil matrix was contained in plastic pots with a volume of 1 quart and a surface area of 83.6 square centimeters (cm^2). When required to ensure good germination and healthy plants, a fungicide treatment and/or other chemical or physical treatment was applied. The plants were grown for 8-22 days in a greenhouse with an approximate 14 hr photoperiod which was maintained at about 29° C. during the day and 26° C. during the night. Nutrients (Peters Excel® 15-5-15 5-Ca 2-Mg and iron chelate) were applied in the irrigation solution as needed and water was added on a regular basis. Supplemental lighting was provided with overhead metal halide 1000-Watt lamps as necessary. The plants were employed for testing when they reached the first through fourth true leaf stage.
(§2) Treatments consisted of the acid or esters of 4-amino-3-chloro-5-fluoro-6-(4-chloro-2-fluoro-3-methoxy-phenyl)pyridine-2-carboxylic acid (Compound A), each formulated as an SC (suspension concentrate), and various herbicidal components alone and in combination. Forms of compound A were applied on an acid equivalent basis.
(§3) Other herbicidal components were applied on an active ingredient basis and included the dimethoxy-pyrimidine acid acetolactate synthase (ALS)-inhibiting herbicides bispyribac-sodium formulated as Regiment® 80WP, pyribenzoxim (technical grade material), pyriminobac-methyl formulated as Hie-Clean® 1.2% GR dissolved in water, and pyriftalid (technical grade material).
(§4) Treatment requirements were calculated based upon the rates being tested, the concentration of active ingredient or acid equivalent in the formulation, and a 12 mL application volume at a rate of 187 L/ha.
(§5) For treatments comprised of formulated compounds, measured amounts of compounds were placed individually in 25 mL glass vials and diluted in a volume of 1.25% (v/v) Agri-Dex® crop oil concentrated to obtain 12× stock solutions. […] Application solutions were prepared by adding an appropriate amount of each stock solution (e.g., 1 mL) and diluted to the appropriate final concentrations with the addition of 10 mL of an aqueous mixture of 1.25% (v/v) crop oil concentrate so that the final spray solutions contained 1.25+/−0.005% (v/v) crop oil concentrate.
For treatments comprised of technical compounds, weighed amounts can be placed individually in 25 mL glass vials and dissolved in a volume of 97:3 v/v acetone/DMSO to obtain 12× stock solutions. […] Application solutions can be prepared by adding an appropriate amount of each stock solution (e.g., 1 mL) and diluted to the appropriate final concentrations with the addition of 10 mL of an aqueous mixture of 1.5% (v/v) crop oil concentrate so that the final spray solutions contain 1.25% (v/v) crop oil concentrate. […]
(§6) For treatments comprised of formulated and technical compounds, weighed amounts of the technical materials were placed individually in 25 mL glass vials and dissolved in a volume of 97:3 v/v acetone/DMSO to obtain 12× stock solutions, and measured amounts of the formulated compounds were placed individually in 25 mL glass vials and diluted in a volume of 1.5% (v/v) crop oil concentrate or water to obtain 12× stock solutions. […]

[2] = test system: FIMMI; assay: In-water applied weed control, transplanted paddy rice (greenhouse); assay type: in vivo, Fimbristylis miliacea (L.) Vahl
Protocol: (§7) Weed seeds or nutlets of the desired test plant species were planted in puddled soil (mud) prepared by mixing a shredded, non-sterilized mineral soil (50.5 percent silt, 25.5 percent clay, and 24 percent sand, with a pH of about 7.6 and an organic matter content of about 2.9 percent) and water at a 1:1 volumetric ratio. The prepared mud was dispensed in 365 mL aliquots into 16-ounce (oz.) non-perforated plastic pots with a surface area of 86.59 square centimeters (cm^2) leaving a headspace of 3 centimeters (cm) in each pot. Mud was allowed to dry overnight prior to planting or transplanting. Rice seeds were planted in Sun Gro MetroMix® 306 planting mixture, which typically has a pH of 6.0 to 6.8 and an organic matter content of about 30 percent, in plastic plug trays. Seedlings at the second or third leaf stage of growth were transplanted into 860 mL of mud contained in 32-oz. non-perforated plastic pots with a surface area of 86.59 cm^2 4 days prior to herbicide application. The paddy was created by filling the headspace of the pots with 2.5 to 3 cm of water. When required to ensure good germination and healthy plants, a fungicide treatment and/or other chemical or physical treatment was applied. The plants were grown for 4-22 days in a greenhouse with an approximate 14 hr photoperiod which was maintained at about 29′C during the day and 26° C. during the night. Nutrients were added as Osmocote® (19:6:12, N:P:K+minor nutrients) at 2 g per 16-oz. pot and 4 g per 32-oz. pot. Water was added on a regular basis to maintain the paddy flood, and supplemental lighting was provided with overhead metal halide 1000-Watt lamps as necessary. The plants were employed for testing when they reached the first through fourth true leaf stage.
(§8) Treatments consisted of the acid or esters of 4-amino-3-chloro-5-fluoro-6-(4-chloro-2-fluoro-3-methoxy-phenyl)pyridine-2-carboxylic acid (compound A) each formulated as an SC and various herbicidal components alone and in combination. Forms of compound A were applied on an acid equivalent basis.
(§9) Other herbicidal components were applied on an active ingredient basis and included the dimethoxy-pyrimidine acid acetolactate synthase (ALS)-inhibiting herbicides bispyribac-sodium formulated as Regiment® 80 WP, pyriminobac-methyl formulated as Hie Clean®, and pyriftalid (technical grade material).
(§10) Treatment requirements for each compound or herbicidal component were calculated based upon the rates being tested, the concentration of active ingredient or acid equivalent in the formulation, an application volume of 2 mL per component per pot, and an application area of 86.59 cm^2 per pot.
(§11) For formulated compounds, a measured amount was placed in an individual 100 or 200 mL glass vial and was dissolved in a volume of 1.25% (v/v) Agri-Dex® crop oil concentrate to obtain application solutions.
(§12) For technical grade compounds, a weighed amount was placed in an individual 100 to 200 mL glass vial and was dissolved in a volume of acetone to obtain concentrated stock solutions. […] The concentrated stock solutions obtained were diluted with an equivalent volume of an aqueous mixture containing 2.5% (v/v) crop oil concentrate so that the final application solutions contained 1.25% (v/v) crop oil concentrate.
(§13) Applications were made by injecting with a pipetter appropriate amounts of the application solutions, individually and sequentially, into the aqueous layer of the paddy.
(§14) Control plants were treated in the same manner with the solvent blank. Applications were made so that all treated plant material received the same concentrations of acetone and crop oil concentrate.
(§15) The treated plants and control plants were placed in a greenhouse as described above and water was added as needed to maintain a paddy flood. […]

[3] = test system: SCPMA; assay: as above; assay type: in vivo, Bolboschoenus maritimus (L.) Palla; conditions: for Visual Weed Control (%)-20 DAA SCPMA Obs: 90 gai/ha
Protocol: as §7, §8, §9, §10, §11, §12, §13, §14, §15

[4] = test system: ECHCO; assay: as above; assay type: in vivo, Echinochloa colona (L.) Link; conditions: 22.5 gai/ha
Protocol: as §7, with “Water was added on a regular basis to maintain the paddy flood, and supplemental lighting was provided with overhead metal halide 1000-Watt lamps as necessary. The plants were employed for testing when they reached the first through fourth true leaf stage.” left out
as §10
For formulated compounds, a measured amount was placed in an individual 100 or 200 mL glass vial and was dissolved in a volume of 1.25% (v/v) Agri-Dex® crop oil concentrate to obtain application solutions. […]

[5] = test system: LEFCH; assay: Postemergence foliar-applied weed control, direct seeded rice (greenhouse); assay type: in vivo, Leptochloa chinensis (L.) Nees
Text: as §1, §2, §3, §4, §5
(§16) For treatments comprised of technical compounds, weighed amounts can be placed individually in 25 mL glass vials and dissolved in a volume of 97:3 v/v acetone/DMSO to obtain 12× stock solutions. […] Application solutions can be prepared by adding an appropriate amount of each stock solution (e.g., 1 mL) and diluted to the appropriate final concentrations with the addition of 10 mL of an aqueous mixture of 1.5% (v/v) crop oil concentrate so that the final spray solutions contain 1.25% (v/v) crop oil concentrate. When technical materials are used, the concentrated stock solutions can be added to the spray solutions so that the final acetone and DMSO concentrations of the application solutions are 16.2% and 0.5%, respectively.
as §6

[6] = test system: LEFCH; assay: In-water applied weed control, transplanted paddy rice (greenhouse); assay type: in vivo, Leptochloa chinensis (L.) Nees; conditions: 45 gai/ha
Protocol: as §7, §8, §9, §10, §11, §12, §13
Control plants were treated in the same manner with the solvent blank. […]

[7] = test system: IPOHE; assay: Postemergence foliar-applied weed control, direct seeded rice (greenhouse); assay type: in vivo, Ipomoea hederacea Jacq.
Text: as §1, §2, §3, §4, §5, §16, §6

[8] = test system: CYPRO; assay: In-water applied weed control, transplanted paddy rice (greenhouse); assay type: in vivo, Cyperus rotundus L.; conditions: 22.5 gai/ha
Protocol: as §7, §8, §9, §10, §11, §12, §13, §14, §15

CO/N=C(\C)c1cccc(Oc2nc(OC)cc(OC)n2)c1C(=O)OC [Pyriminobac-methyl, methyl 2-[(4,6-dimethoxy-2-pyrimidinyl)oxy]-6-[1-(methoxyimino)ethyl]benzoate, reference compound]
Visual Weed Control (%)-24 DAA DIGSA Obs ([1]; 11.25 gai/ha): 0% | Visual Weed Control (%)-24 DAA DIGSA Obs ([1]; 22.5 gai/ha): 0% | Visual Weed Control (%)-21 DAA FIMMI Obs ([2]; 22.5 gai/ha): 0% | Visual Weed Control (%)-21 DAA FIMMI Obs ([2]; 45 gai/ha): 0% | Visual Weed Control (%)-21 DAA SCPMA Obs ([3]; 22.5 gai/ha, Table 10): 0% | Visual Weed Control (%)-21 DAA SCPMA Obs ([3]; 22.5 gai/ha, Table 11): 0% | Visual Weed Control (%)-21 DAA SCPMA Obs ([3]; 45 gai/ha, Table 10): 0% | Visual Weed Control (%)-21 DAA SCPMA Obs ([3]; 45 gai/ha, Table 11): 0% | Visual Weed Control (%)-20 DAA SCPMA Obs ([3]; Table 10): 43% | Visual Weed Control (%)-20 DAA SCPMA Obs ([3]; Table 11): 43% | Visual Weed Control (%)-21 DAA ECHCO Obs [4]: 40% | Visual Weed Control (%)-24 DAA LEFCH Obs ([5]; 11.25 gai/ha): 0% | Visual Weed Control (%)-24 DAA LEFCH Obs ([5]; 22.5 gai/ha): 0% | Visual Weed Control (%)-21 DAA LEFCH Obs [6]: 80% | Visual Weed Control (%)-24 DAA IPOHE Obs ([7]; 11.25 gai/ha): 10% | Visual Weed Control (%)-24 DAA IPOHE Obs ([7]; 11.25 gai/ha, Table 4): 10% | Visual Weed Control (%)-24 DAA IPOHE Obs ([7]; 22.5 gai/ha): 10% | Visual Weed Control (%)-24 DAA IPOHE Obs ([7]; 22.5 gai/ha, Table 4): 10% | Visual Weed Control (%)-21 DAA IPOHE Obs ([7]; 90 gai/ha): 20% | Visual Weed Control (%)-24 DAA IPOHE Obs ([7]; 90 gai/ha, second part of Table 3): 20% | Visual Weed Control (%)-21 DAA CYPRO Obs [8]: 0%
